In PubChem BioAssay AID1671245 one finds IC50 data, which are given here for one compound.

This assay addresses Casein kinase I isoform epsilon (Homo sapiens) (UniProt P49674). Description: inhibition of CK1 epsilon activity – biochemical, Z'-LYTE, FRET, direct format, dose response (AID 1671245). The note with it: Z'-LYTE FRET kinase activity assay, recombinant CSNK1E.

Casein kinase I isoform epsilon (Homo sapiens), sequence (P49674 whole entry, looked up, canonical isoform): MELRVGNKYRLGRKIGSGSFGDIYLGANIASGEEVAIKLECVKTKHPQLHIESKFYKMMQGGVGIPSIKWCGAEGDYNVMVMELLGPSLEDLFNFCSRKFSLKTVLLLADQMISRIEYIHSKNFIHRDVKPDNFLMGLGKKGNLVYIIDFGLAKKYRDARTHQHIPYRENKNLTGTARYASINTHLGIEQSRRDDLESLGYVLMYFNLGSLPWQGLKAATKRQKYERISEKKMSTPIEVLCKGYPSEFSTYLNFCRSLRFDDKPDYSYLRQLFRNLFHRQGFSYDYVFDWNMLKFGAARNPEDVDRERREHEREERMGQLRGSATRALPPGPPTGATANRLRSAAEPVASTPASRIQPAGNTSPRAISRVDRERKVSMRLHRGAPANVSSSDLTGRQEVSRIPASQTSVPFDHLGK

`Brc1c(Br)c(Br)c2n[nH]nc2c1Br`: the IC50 was 4.83 µM.

The IC50 is the midpoint of a concentration-inhibition curve.
